Experimental findings from ChEMBL document CHEMBL1201862, “PubChem BioAssay data set” (2004) are described below.

Some test systems named below: ACHN; CAKI-1; COLO 205; HL-60; HOP-92; KM12; LOX IMVI; M19-MEL; Malme-3M; NCI-H226; OVCAR-5; SF-295; SK-MEL-2; SW-620; U-251; SR.
Test in all cases: NCI tumour cell line growth inhibition, 48 h

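Briefly, cells in 96-well plates were exposed to five compound concentrations for 48 h, and endpoints were estimated by linear interpolation. GI50 is the concentration that inhibits growth by half.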 Activity calls are given as the source filed them. Rule as the data show it: active = GI50 up to about 1.1 µM and inactive = higher.

As to `CNC(=O)OCc1c2ccncc2c(C)c2c1[nH]c1ccc(OC)cc12`, the GI50 in the test with ACHN was 0.193 µM (active); in the test with CAKI-1, 0.968 µM (active); with COLO 205, 0.536 µM (active); in the test with HL-60 it was 0.204 µM (active); in the test with HOP-92, 0.187 µM (active); with KM12 it was 0.573 µM (active). The GI50 with LOX IMVI is 0.256 µM (active); in the test with M19-MEL, 0.344 µM (active); with Malme-3M, 0.353 µM (active); with NCI-H226 it was 0.179 µM (active); in the test on OVCAR-5, 0.247 µM (active); in the test with SF-295 it was 0.352 µM (active). For the same molecule, the GI50 in the test with SK-MEL-2 was 0.181 µM (active); in the test with SW-620, 0.164 µM (active); in the test with U-251 it was 0.182 µM (active).

For `C[Si](C)(C)OC1CC(=O)OC1n1cc(F)c(=O)[nH]c1=O` (configuration not stated), the GI50 with ACHN is 11.7 µM (inactive); with CAKI-1 it was 23.9 µM (inactive); in the test with COLO 205, 21 µM (inactive); in the test with HL-60 it was 9.71 µM (inactive); with KM12, 18.1 µM (inactive); with LOX IMVI, 7.94 µM (inactive). Also, the GI50 with M19-MEL was 12.1 µM (inactive); in the test on Malme-3M, 19.2 µM (inactive); in the test on NCI-H226, > 86.9 µM (inactive); in the test on OVCAR-5, > 89.9 µM (inactive); in the test with SF-295, > 76.9 µM (inactive); in the test with SK-MEL-2, > 100 µM (inactive). Besides, the GI50 is 2.31 µM (inactive) in the test on SR, 24.2 µM (inactive) with SW-620 and 43 µM (inactive) with U-251.

Turning to `Cc1nc2c(s/c(=N\N)n2-c2ccccc2)c(=O)n1C`, the GI50 was > 100 µM (inactive) with ACHN; > 100 µM (inactive) in the test on CAKI-1; > 100 µM (inactive) in the test on COLO 205; > 100 µM (inactive) with HL-60; > 100 µM (inactive) in the test on HOP-92; 80.2 µM (inactive) in the test with KM12. Further, the GI50 in the test on LOX IMVI, in the test with M19-MEL, in the test with NCI-H226, with OVCAR-5, in the test with SF-295 and with SK-MEL-2 was > 100 µM (inactive) throughout. Besides, the GI50 in the test with SR, in the test on SW-620 and in the test on U-251 was > 100 µM (inactive) throughout.

As to `O=C(O)CNS(=O)(=O)c1ccc(NC(=O)c2cccc([N+](=O)[O-])c2)cc1`, the GI50 with ACHN, with CAKI-1, in the test with COLO 205, with HL-60, in the test on HOP-92 and in the test on KM12 was > 100 µM (inactive) throughout. Besides, the GI50 in the test with LOX IMVI, in the test with M19-MEL, with Malme-3M, in the test with NCI-H226, in the test with OVCAR-5 and in the test on SF-295 was > 100 µM (inactive) in each case. The GI50 in the test with SK-MEL-2, in the test with SW-620 and in the test on U-251 was > 100 µM (inactive) throughout.

Turning to `O=C1C(=O)C(Br)(Br)C(Br)=C1Br`, the GI50 was 15.9 µM (inactive) with ACHN; 18.4 µM (inactive) in the test on CAKI-1; 17.1 µM (inactive) in the test on COLO 205; 18.7 µM (inactive) with HL-60; 14 µM (inactive) in the test on HOP-92; 12.9 µM (inactive) with KM12. The GI50 in the test with LOX IMVI is 13.7 µM (inactive); in the test on M19-MEL, 19.1 µM (inactive); with Malme-3M, 20 µM (inactive); in the test with OVCAR-5, 13.6 µM (inactive); in the test with SF-295, 57.4 µM (inactive); in the test with SK-MEL-2, 17.1 µM (inactive). Also, the GI50 is 13.8 µM (inactive) with SW-620 and 25.2 µM (inactive) in the test with U-251.

On to `Cc1ccc(NC(=O)COC(=O)c2cccc3c(=O)c4ccccc4[nH]c23)cc1`, for which the GI50 is 27 µM (inactive) with ACHN; 29.2 µM (inactive) in the test with CAKI-1; 21.9 µM (inactive) in the test with COLO 205; 38.3 µM (inactive) in the test on HL-60; 82.8 µM (inactive) with HOP-92; 22.1 µM (inactive) in the test with KM12. Also, the GI50 in the test with LOX IMVI was 16.9 µM (inactive); with M19-MEL, 46.7 µM (inactive); in the test with Malme-3M it was 47 µM (inactive); with NCI-H226, 26.5 µM (inactive); in the test with SF-295 it was 35.7 µM (inactive); in the test on SR, 13 µM (inactive). Moreover, the figures for the GI50 in the test with SW-620 and in the test with U-251 were 21.5 µM (inactive) and 29.4 µM (inactive), respectively.

On to `COC1OC(COS(=O)(=O)c2ccc(C)cc2)C(O)C(OS(=O)(=O)c2ccc(C)cc2)C1OS(=O)(=O)c1ccc(C)cc1` (configuration not stated), for which the GI50 in the test on ACHN is > 100 µM (inactive); with CAKI-1 it was 1.03 µM (active); with COLO 205 it was > 100 µM (inactive); with HL-60 it was > 100 µM (inactive); in the test on KM12 it was > 100 µM (inactive); in the test on M19-MEL, > 100 µM (inactive). The GI50 in the test on Malme-3M, in the test with NCI-H226, in the test with OVCAR-5, in the test with SF-295, with SK-MEL-2 and in the test with SR was > 100 µM (inactive) in each case. The GI50 with SW-620 is 16 µM (inactive); with U-251, > 100 µM (inactive).

For `CC1(C(=O)NCCN(CCNC(=O)C2(C)CC3(C)CC(C)(C2)C(=O)NC3=O)CCNC(=O)C2(C)CC3(C)CC(C)(C2)C(=O)NC3=O)CC2(C)CC(C)(C1)C(=O)NC2=O` (configuration not stated), the GI50 was > 100 µM (inactive) in the test with ACHN; > 100 µM (inactive) in the test with CAKI-1; > 100 µM (inactive) with COLO 205; > 100 µM (inactive) in the test on HL-60; < 0.01 µM (active) with HOP-92; > 100 µM (inactive) in the test with KM12. For the same molecule, the GI50 with M19-MEL, with SF-295, in the test with SK-MEL-2, in the test on SR, with SW-620 and with U-251 was > 100 µM (inactive) throughout.

On to `CCOC(=O)NC(=O)c1cn(CCOCCOC(=O)NCCCCCCNC(=O)OCCOCCn2cc(C(=O)NC(=O)OCC)c(=O)[nH]c2=O)c(=O)[nH]c1=O`, for which the GI50 in the test on ACHN, in the test with COLO 205, with HL-60, in the test on HOP-92, in the test on KM12 and with LOX IMVI was > 100 µM (inactive) throughout. Besides, the GI50 in the test with M19-MEL, in the test on Malme-3M, in the test with OVCAR-5, in the test on SF-295, in the test with SK-MEL-2 and in the test with SR was > 100 µM (inactive) each time. Moreover, the GI50 in the test with SW-620 and with U-251 was > 100 µM (inactive) each time.

In the case of `N#CNc1nc(N)c(-c2ccc(Cl)cc2)c(C(=O)Nc2nccs2)n1`, the GI50 with ACHN, with CAKI-1, in the test on HL-60, in the test on HOP-92, in the test with KM12 and with LOX IMVI was > 100 µM (inactive) throughout. The GI50 in the test with M19-MEL, in the test on Malme-3M, in the test with NCI-H226, with OVCAR-5, with SF-295 and with SK-MEL-2 was > 100 µM (inactive) each time. Further, the GI50 in the test with SW-620 and in the test on U-251 was > 100 µM (inactive) throughout.

In the case of `CC(=O)n1c2ccccc2c2nc3nc(Oc4ccc(C)cc4)c4ccccc4c3cc21`, the GI50 in the test on ACHN, with CAKI-1, in the test with COLO 205, with KM12, in the test on LOX IMVI and in the test on M19-MEL was > 100 µM (inactive) throughout. Further, the GI50 in the test on Malme-3M is > 100 µM (inactive); in the test with NCI-H226, > 100 µM (inactive); in the test on OVCAR-5, > 100 µM (inactive); in the test with SF-295, 66.2 µM (inactive); with SK-MEL-2, > 100 µM (inactive); in the test with SR, > 100 µM (inactive). Besides, the GI50 in the test on SW-620 is > 100 µM (inactive); in the test with U-251 it was 41.6 µM (inactive).

As to `COC(=O)c1ccc(Cl)cc1NC(=O)C1CCCCC1`, the GI50 with ACHN, in the test with CAKI-1, in the test on COLO 205, with HOP-92, in the test on KM12 and in the test with M19-MEL was > 100 µM (inactive) throughout. Also, the GI50 in the test with Malme-3M, with NCI-H226, in the test with OVCAR-5, in the test with SF-295, in the test on SK-MEL-2 and with SR was > 100 µM (inactive) in each case. The GI50 in the test with SW-620 and with U-251 was > 100 µM (inactive) in each case.

On to `C1C[N+]23CCC[N+]2(C1)CCC3` (configuration not stated), for which the GI50 is > 100 µM (inactive) in the test with ACHN; > 100 µM (inactive) in the test on CAKI-1; > 100 µM (inactive) with COLO 205; 31.1 µM (inactive) with HL-60; > 100 µM (inactive) in the test with HOP-92; > 100 µM (inactive) with KM12. The GI50 with LOX IMVI, in the test on M19-MEL, with Malme-3M, in the test on NCI-H226, with OVCAR-5 and in the test with SF-295 was > 100 µM (inactive) in each case. Also, the GI50 in the test on SK-MEL-2, with SW-620 and in the test on U-251 was > 100 µM (inactive) throughout.

With `O=C1CCC2(c3ccc(Cl)cc3)Nc3cc(Cl)ccc3N12` (configuration not stated), the GI50 is 10.4 µM (inactive) in the test with ACHN; 4.7 µM (inactive) in the test with COLO 205; 1.15 µM (inactive) in the test with HL-60; 12 µM (inactive) in the test with KM12; 12.1 µM (inactive) in the test with LOX IMVI; 12.8 µM (inactive) in the test on M19-MEL. Further, the GI50 in the test with Malme-3M was 10.7 µM (inactive); in the test with SF-295, 9.04 µM (inactive); in the test with SK-MEL-2, 11.4 µM (inactive); in the test on SR, 5.9 µM (inactive); in the test on SW-620, 6.14 µM (inactive); in the test on U-251, 11.7 µM (inactive).
